The target of assay [1] is T1, MKNK1 (Homo sapiens, UniProt Q9BUB5, T385D).
T1 construct: GST (N); purchased Carna Biosciences 02-145; host or cells: insect cells (baculovirus expression system)
Kind of assay: MKNK1 kinase assay (MKNK1 TR-FRET assay). It counts as biochemical. The settings on record: 10 μM ATP, 15 min preincubation.

In assay [2] the target is T1, MKNK1. In words: MKNK1 kinase high ATP assay (TR-FRET-based). It counts as biochemical. The settings on record: 2 mM ATP, 15 min preincubation. Summed up:
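TR-FRET read-out (anti-phospho-S6 Ser236 antibody, Eu/XL665) of biotin-peptide phosphorylation (0.06 μM) at high ATP (2 mM final). Enzyme was GST-MKNK1 full length, T344D, pre-bound to compound for 15 min before a 30 min reaction at 22 °C, pH 7.5. Inhibition scaled between no-inhibitor (0%) and no-enzyme (100%) wells.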

Structures are written as SMILES.

T1 sequence (Q9BUB5 1-424 isoform Q9BUB5-2 T344D): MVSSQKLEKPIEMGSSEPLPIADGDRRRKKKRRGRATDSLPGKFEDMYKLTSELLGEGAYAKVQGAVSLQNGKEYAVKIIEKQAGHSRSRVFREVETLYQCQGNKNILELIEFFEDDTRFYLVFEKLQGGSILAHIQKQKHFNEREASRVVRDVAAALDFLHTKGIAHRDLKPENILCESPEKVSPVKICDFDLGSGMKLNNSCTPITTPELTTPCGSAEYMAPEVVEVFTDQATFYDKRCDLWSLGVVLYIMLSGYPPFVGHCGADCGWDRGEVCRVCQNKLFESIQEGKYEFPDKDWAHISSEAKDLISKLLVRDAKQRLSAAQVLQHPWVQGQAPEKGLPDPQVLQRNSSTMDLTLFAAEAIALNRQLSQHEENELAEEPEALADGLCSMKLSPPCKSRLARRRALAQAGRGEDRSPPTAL

As for `CS(=O)(=O)CCCOc1ccc2ncc(-c3cc4c(N5CCN(c6ccccc6)CC5)nccc4o3)n2n1` [III-56, 6-[3-(Methylsulfonyl)propoxy]-3-[4-(4-phenylpiperazin-1-yl)furo[3,2-c]pyridin-2-yl]imidazo[1,2-b]pyridazine], the IC50 is 20.8 nM against MKNK1 [1] (Table 1c) and 16.9 nM against MKNK1 [2] (Table 2c).
`CCCN(CCOC)c1nccc2oc(-c3cnc4ccc(O[C@H](C)CN)nn34)cc12` [III-33, 2-(6-{[(2R)-1-Aminopropan-2-yl]oxy}imidazo[1,2-b]pyridazin-3-yl)-N-(2-methoxyethyl)-N-propylfuro[3,2-c]pyridin-4-amine]: the IC50 on MKNK1 [1] (Table 1c) was found to be 1.1 nM; at MKNK1 [2] (Table 2c), 1.3 nM.
For the compound `O=C(NCCOc1ccc2ncc(-c3cc4ccccc4o3)n2n1)C1CCOCC1` [Example I-66, N-(2-{[3-(1-Benzofuran-2-yl)imidazo[1,2-b]-pyridazin-6-yl]oxy}ethyl)tetrahydro-2H-pyran-4-carboxamide], the IC50 came to 7.3 nM against MKNK1 [1] (Table 1a) and 14.9 nM at MKNK1 [2] (Table 2a).
Consider `C[C@@H]1CN(c2nccc3oc(-c4cnc5ccc(OC[C@H]6CCC(=O)N6)nn45)cc23)CCO1` [III-118, (5R)-5-{[(3-{4-[(2R)-2-methylmorpholin-4-yl]furo[3,2-c]pyridin-2-yl}imidazo[1,2-b]pyridazin-6-yl)oxy]methyl}pyrrolidin-2-one], for which the IC50 on MKNK1 [1] (Table 1c) worked out at 2.5 nM; at MKNK1 [2] (Table 2c), 1 nM.
Take `O=C(N[C@H]1C[C@H](Oc2ccc3ncc(-c4cc5ccccc5o4)n3n2)C1)C(F)(F)F` [Example I-23, N-(trans-3-{[3-(1-Benzofuran-2-yl)imidazo[1,2-b]pyridazin-6-yl]oxy}cyclobutyl)-2,2,2-trifluoroacetamide]: the IC50 at MKNK1 [1] (Table 1a) was 15.7 nM; on MKNK1 [2] (Table 2a), 18.8 nM.
Consider `O=C1CC[C@H](COc2ccc3ncc(-c4cc5c(N6CCCCC6)nccc5o4)n3n2)N1` [III-62, (5R)-5-[({3-[4-(Piperidin-1-yl)furo[3,2-c]pyridin-2-yl]imidazo[1,2-b]pyridazin-6-yl}oxy)methyl]pyrrolidin-2-one], for which the values for the IC50 at MKNK1 [1] (Table 1c) and on MKNK1 [2] (Table 2c) were 2.4 nM and 1 nM, respectively.
The corresponding values for `COC[C@H]1CCCN1c1nccc2oc(-c3cnc4ccc(OC[C@H]5CCC(=O)N5)nn34)cc12` [III-78, (5R)-5-{[(3-{4-[(2R)-2-(Methoxymethyl)pyrrolidin-1-yl]furo[3,2-c]pyridin-2-yl}imidazo[1,2-b]pyridazin-6-yl)oxy]methyl}pyrrolidin-2-one] are 0.2 nM and 1.2 nM.
Take `COC[C@H]1CCCN1c1cccc2oc(-c3cnc4ccc(OC[C@@H](C)N)nn34)cc12` [II-26, (2R)-1-[(3-{4-[(2R)-2-(Methoxymethyl)pyrrolidin-1-yl]-1-benzofuran-2-yl}imidazo[1,2-b]pyridazin-6-yl)oxy]propan-2-amine]: the IC50 against MKNK1 [1] (Table 1b) and against MKNK1 [2] (Table 2b) was 0.8 nM throughout.
In the case of `C[C@@H]1CN(c2cccc3oc(-c4cnc5ccc(OC[C@H]6CCC(=O)N6)nn45)cc23)CCO1` [II-71, (5R)-5-{[(3-{4-[(2R)-2-methylmorpholin-4-yl]-1-benzofuran-2-yl}imidazo[1,2-b]pyridazin-6-yl)oxy]methyl}pyrrolidin-2-one], the IC50 on MKNK1 [1] (Table 1b) stood at 6.5 nM; on MKNK1 [2] (Table 2b), 6.1 nM.
On to `N[C@H]1C[C@H](Oc2ccc3ncc(-c4cc5c(N6CCC[C@@H]6CO)nccc5o4)n3n2)C1` [III-102, [(2R)-1-(2-{6-[(trans-3-Aminocyclobutyl)oxy]imidazo[1,2-b]pyridazin-3-yl}furo[3,2-c]pyridin-4-yl)pyrrolidin-2-yl]methanol], for which the IC50 against MKNK1 [1] (Table 1c) was 6.8 nM; against MKNK1 [2] (Table 2c) it was 31.2 nM.
`N[C@H]1C[C@H](Oc2ccc3ncc(-c4cc5c(N6CCN(c7ccccc7)CC6)cccc5o4)n3n2)C1` [II-16, trans-3-({3-[4-(4-Phenylpiperazin-1-yl)-1-benzofuran-2-yl]imidazo[1,2-b]-pyridazin-6-yl}oxy)cyclobutanamine]: the IC50 came out at 13 nM against MKNK1 [1] (Table 1b) and 15 nM against MKNK1 [2] (Table 2b).
As to `O=C1CC[C@H](COc2ccc3ncc(-c4cc5c(N6CCC(CO)CC6)nccc5o4)n3n2)N1` [III-77, (5R)-5-{[(3-{4-[4-(Hydroxymethyl)piperidin-1-yl]furo[3,2-c]pyridin-2-yl}imidazo[1,2-b]pyridazin-6-yl)oxy]methyl}pyrrolidin-2-one], the IC50 on MKNK1 [1] (Table 1c) was found to be 0.7 nM; against MKNK1 [2] (Table 2c), 1.1 nM.
`C[C@@H]1CN(c2cccc3oc(-c4cnc5ccc(OC[C@@H](C)N)nn45)cc23)CCO1` [II-69, (2R)-1-[(3-{4-[(2R)-2-methylmorpholin-4-yl]-1-benzofuran-2-yl}imidazo[1,2-b]pyridazin-6-yl)oxy]propan-2-amine]: the IC50 at MKNK1 [1] (Table 1b) is 29.4 nM; on MKNK1 [2] (Table 2b), 34.8 nM.
For `CCN(CCOC)c1nccc2oc(-c3cnc4ccc(OC[C@H]5CCC(=O)N5)nn34)cc12` [III-69, (5R)-5-{[(3-{4-[Ethyl(2-methoxyethyl)amino]furo[3,2-c]pyridin-2-yl}imidazo[1,2-b]pyridazin-6-yl)oxy]methyl}pyrrolidin-2-one], the IC50 against MKNK1 [1] (Table 1c) was 0.4 nM; at MKNK1 [2] (Table 2c), 0.1 nM.
The corresponding values for `CC(C)(C)N1CCN(c2nccc3oc(-c4cnc5ccc(O[C@H]6C[C@H](N)C6)nn45)cc23)CC1` [III-99, trans-3-({3-[4-(4-tert-butylpiperazin-1-yl)furo[3,2-c]pyridin-2-yl]imidazo[1,2-b]pyridazin-6-yl}oxy)cyclobutanamine] are 24.4 nM and 45.6 nM.
Turning to `COc1nccc2oc(-c3cnc4ccc(OC[C@@H]5CCC(=O)N5)nn34)cc12` [IV-3, (5S)-5-({[3-(4-Methoxyfuro[3,2-c]pyridin-2-yl)imidazo[1,2-b]pyridazin-6-yl]-oxy}methyl)pyrrolidin-2-one], the IC50 against MKNK1 [1] (Table 1d) was 10 nM; on MKNK1 [2] (Table 2d), 28 nM.
For `C[C@H]1CN(c2cccc3oc(-c4cnc5ccc(O[C@H]6C[C@H](N)C6)nn45)cc23)CCO1` [II-43, trans-3-[(3-{4-[(2S)-2-methylmorpholin-4-yl]-1-benzofuran-2-yl}imidazo[1,2-b]pyridazin-6-yl)oxy]cyclobutanamine], the results for the IC50 against MKNK1 [1] (Table 1b) and against MKNK1 [2] (Table 2b) were 21.7 nM and 37.5 nM, respectively.
On to `FC(F)(F)COc1ccc2ncc(-c3cc4c(N5CCNCC5)cccc4o3)n2n1` [II-56, 3-[4-(piperazin-1-yl)-1-benzofuran-2-yl]-6-(2,2,2-trifluoroethoxy)im-idazo[1,2-b]pyridazine], for which the figures for the IC50 on MKNK1 [1] (Table 1b) and on MKNK1 [2] (Table 2b) were 5.4 nM and 3.1 nM, respectively.
In the case of `CCN(CCOC)c1nccc2oc(-c3cnc4ccc(OC[C@H](C)N)nn34)cc12` [III-18, 2-(6-{[(2S)-2-Aminopropyl]oxy}imidazo[1,2-b]pyridazin-3-yl)-N-ethyl-N-(2-methoxyethyl)furo[3,2-c]pyridin-4-amine], the results for the IC50 against MKNK1 [1] (Table 1c) and at MKNK1 [2] (Table 2c) were 0.7 nM and 0.9 nM, respectively.
As to `C[C@@H](N)COc1ccc2ncc(-c3cc4c(N5CCOC(C)(C)C5)nccc4o3)n2n1` [III-124, (2R)-1-({3-[4-(2,2-dimethylmorpholin-4-yl)furo[3,2-c]pyridin-2-yl]imidazo[1,2-b]pyridazin-6-yl}oxy)propan-2-amine], the IC50 against MKNK1 [1] (Table 1c) was found to be 16.8 nM; against MKNK1 [2] (Table 2c), 13.9 nM.
The corresponding values for `CCN(CCOC(C)(C)C)c1nccc2oc(-c3cnc4ccc(OC[C@H](C)N)nn34)cc12` [III-26, 2-(6-{[(2S)-2-Aminopropyl]oxy}imidazo[1,2-b]pyridazin-3-yl)-N-(2-tert-butoxyethyl)-N-ethylfuro[3,2-c]pyridin-4-amine] are 1.7 nM and 0.8 nM.
On to `C[C@H](N)COc1ccc2ncc(-c3cc4c(N5CC[C@@H](N(C)C)C5)nccc4o3)n2n1` [III-11, (3R)-1-[2-(6-{[(2S)-2-Aminopropyl]oxy}imidazo[1,2-b]pyridazin-3-yl)furo[3,2-c]pyridin-4-yl]-N,N-dimethylpyrrolidin-3-amine], for which the figures for the IC50 at MKNK1 [1] (Table 1c) and on MKNK1 [2] (Table 2c) were 2.7 nM and 12.4 nM, respectively.
As for `CCN(CCO)c1nccc2oc(-c3cnc4ccc(OC[C@@H]5COCCN5)nn34)cc12` [III-40, 2-[Ethyl(2-{6-[(3S)-morpholin-3-ylmethoxy]imidazo[1,2-b]pyridazin-3-yl}furo[3,2-c]pyridin-4-yl)amino]ethanol], the IC50 was determined as 1.5 nM on MKNK1 [1] (Table 1c) and 2.6 nM against MKNK1 [2] (Table 2c).
`CCN(CCOC)c1nccc2oc(-c3cnc4ccc(O[C@H](C)CN)nn34)cc12` [III-32, 2-(6-{[(2R)-1-Aminopropan-2-yl]oxy}imidazo[1,2-b]pyridazin-3-yl)-N-ethyl-N-(2-methoxyethyl)furo[3,2-c]pyridin-4-amine]: the IC50 against MKNK1 [1] (Table 1c) was 0.6 nM; against MKNK1 [2] (Table 2c) it was 1.5 nM.
The corresponding values for `C[C@@H]1CN(c2nccc3oc(-c4cnc5ccc(OC[C@H]6CCC(=O)N6)nn45)cc23)C[C@H](C)O1` [III-72, (5R)-5-{[(3-{4-[(2R,6S)-2,6-Dimethylmorpholin-4-yl]furo[3,2-c]pyridin-2-yl}imidazo[1,2-b]pyridazin-6-yl)oxy]methyl}pyrrolidin-2-one] are 1 nM and 2 nM.
Regarding `CCCCC(=O)NCCOc1ccc2ncc(-c3cc4ccccc4o3)n2n1` [Example I-74, N-(2-{[3-(1-Benzofuran-2-yl)imidazo[1,2-b]-pyridazin-6-yl]oxy}ethyl)pentanamide], the IC50 came out at 5.4 nM against MKNK1 [1] (Table 1a) and 16.7 nM against MKNK1 [2] (Table 2a).
`COCC(=O)N1CCC[C@H]1CCOc1ccc2ncc(-c3cc4ccccc4o3)n2n1` [Example I-58, 1-[(2S)-2-(2-{[3-(1-Benzofuran-2-yl)imidazo[1,2-b]-pyridazin-6-yl]oxy}ethyl)pyrrolidin-1-yl]-2-methoxyethanone]: the IC50 on MKNK1 [1] (Table 1a) came to 2.6 nM; against MKNK1 [2] (Table 2a), 5.2 nM.

Values taken from patent publication US20160287589A1, “SUBSTITUTED-IMIDAZOPYRIDAZINES” (BAYER PHARMA AKTIENGESELLSCHAFT, priority 2013, published 2016).
